Reference: ChEMBL document CHEMBL4418261, “Pyripyropene derivatives having acat2 inhibiting activity and stable to metabolizing enzymes” (2017)

How the values were obtained:
[1] = molecular target: T1, Sterol O-acyltransferase 2 (Mus musculus, UniProt O88908); experiment: Inhibition of ACAT2 in mouse hepatic microsome membranes using [1-14C]oleoyl coenzyme A as substrate incubated for 5 mins; type: microsomes, Liver
T1 sequence (O88908 whole entry): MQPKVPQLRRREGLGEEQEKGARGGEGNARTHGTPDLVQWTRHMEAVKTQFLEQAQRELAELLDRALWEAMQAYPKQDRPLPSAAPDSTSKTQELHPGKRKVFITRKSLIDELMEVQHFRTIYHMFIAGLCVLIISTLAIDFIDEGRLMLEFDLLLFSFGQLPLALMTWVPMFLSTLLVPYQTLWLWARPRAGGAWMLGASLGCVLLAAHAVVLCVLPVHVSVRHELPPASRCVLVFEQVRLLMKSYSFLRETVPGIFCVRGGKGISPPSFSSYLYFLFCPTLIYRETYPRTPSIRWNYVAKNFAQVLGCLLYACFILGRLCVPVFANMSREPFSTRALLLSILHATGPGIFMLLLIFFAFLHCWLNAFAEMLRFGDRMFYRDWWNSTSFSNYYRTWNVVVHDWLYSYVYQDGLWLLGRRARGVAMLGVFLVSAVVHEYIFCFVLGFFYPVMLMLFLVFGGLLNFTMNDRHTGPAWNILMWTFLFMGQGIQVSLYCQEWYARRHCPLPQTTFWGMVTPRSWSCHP

[2] = Half life in Sprague-Dawley rat hepatic microsomes at 6 ug/ml by LC-MS method; type: ADME, Microsome; settings: liver microsomes
[3] = molecular target: T2, Sterol O-acyltransferase 2 (Mus musculus) (UniProt O88908); experiment: Potency index, ratio of PRD-043 IC50 to test compound IC50 for inhibition ACAT2 in mouse hepatic microsome membranes using [1-14C]oleoyl coenzyme A as substrate incubated for 5 mins; type: microsomes
T2 sequence (whole entry): T1 sequence (O88908 whole entry)

**Q.** Which results are given for `Cc1ccccc1[C@@H]1OC[C@@]2(C)[C@@H]3C[C@H](OC(=O)c4ccc(C#N)cc4)[C@@]4(C)Oc5cc(-c6cccnc6)oc(=O)c5[C@H](O)[C@@H]4[C@@]3(C)CC[C@@H]2O1`?
**A.** IC50 [1]: 1 to 10 nM; half-life at 6 ug/ml [2]: > 9 h; Ratio IC50 [3]: 10 to 20

**Q.** For `CC(=O)O[C@H]1CC[C@]2(C)[C@H]3[C@@H](O)c4c(cc(-c5cccnc5)oc4=O)O[C@]3(C)[C@@H](OC(=O)c3ccc(C#N)cc3)C[C@H]2[C@]1(C)C(=O)O`, which IC50 [1] is on record?
**A.** < 0.5 nM

**Q.** What about the half-life at 6 ug/ml [2] of the same molecule?
**A.** > 9 h

**Q.** What about the Ratio IC50 [3] of the same molecule?
**A.** < 20

**Q.** Which results are given for `COc1ccc(CNC(=O)[C@]2(C)[C@@H](OC(C)=O)CC[C@]3(C)[C@H]4[C@@H](O)c5c(cc(-c6cccnc6)oc5=O)O[C@]4(C)[C@@H](OC(=O)c4ccc(C#N)cc4)C[C@H]32)c(OC)c1`?
**A.** IC50 [1]: < 0.5 nM; half-life at 6 ug/ml [2]: > 9 h; Ratio IC50 [3]: < 20

**Q.** What does the source list for `COC(=O)[C@]1(C)[C@@H](OC(C)=O)CC[C@]2(C)[C@H]3[C@@H](O)c4c(cc(-c5cccnc5)oc4=O)O[C@]3(C)[C@@H](OC(=O)c3ccc(C#N)cc3)C[C@H]21`?
**A.** IC50 [1]: 0.5 to 1 nM; half-life at 6 ug/ml [2]: > 9 h; Ratio IC50 [3]: 10 to 20
